In the Kinase Knowledgebase extract (Sharma et al. 2016):

Molecular target: EGFR (UniProt P00533)
Sequence (P00533 whole entry, looked up): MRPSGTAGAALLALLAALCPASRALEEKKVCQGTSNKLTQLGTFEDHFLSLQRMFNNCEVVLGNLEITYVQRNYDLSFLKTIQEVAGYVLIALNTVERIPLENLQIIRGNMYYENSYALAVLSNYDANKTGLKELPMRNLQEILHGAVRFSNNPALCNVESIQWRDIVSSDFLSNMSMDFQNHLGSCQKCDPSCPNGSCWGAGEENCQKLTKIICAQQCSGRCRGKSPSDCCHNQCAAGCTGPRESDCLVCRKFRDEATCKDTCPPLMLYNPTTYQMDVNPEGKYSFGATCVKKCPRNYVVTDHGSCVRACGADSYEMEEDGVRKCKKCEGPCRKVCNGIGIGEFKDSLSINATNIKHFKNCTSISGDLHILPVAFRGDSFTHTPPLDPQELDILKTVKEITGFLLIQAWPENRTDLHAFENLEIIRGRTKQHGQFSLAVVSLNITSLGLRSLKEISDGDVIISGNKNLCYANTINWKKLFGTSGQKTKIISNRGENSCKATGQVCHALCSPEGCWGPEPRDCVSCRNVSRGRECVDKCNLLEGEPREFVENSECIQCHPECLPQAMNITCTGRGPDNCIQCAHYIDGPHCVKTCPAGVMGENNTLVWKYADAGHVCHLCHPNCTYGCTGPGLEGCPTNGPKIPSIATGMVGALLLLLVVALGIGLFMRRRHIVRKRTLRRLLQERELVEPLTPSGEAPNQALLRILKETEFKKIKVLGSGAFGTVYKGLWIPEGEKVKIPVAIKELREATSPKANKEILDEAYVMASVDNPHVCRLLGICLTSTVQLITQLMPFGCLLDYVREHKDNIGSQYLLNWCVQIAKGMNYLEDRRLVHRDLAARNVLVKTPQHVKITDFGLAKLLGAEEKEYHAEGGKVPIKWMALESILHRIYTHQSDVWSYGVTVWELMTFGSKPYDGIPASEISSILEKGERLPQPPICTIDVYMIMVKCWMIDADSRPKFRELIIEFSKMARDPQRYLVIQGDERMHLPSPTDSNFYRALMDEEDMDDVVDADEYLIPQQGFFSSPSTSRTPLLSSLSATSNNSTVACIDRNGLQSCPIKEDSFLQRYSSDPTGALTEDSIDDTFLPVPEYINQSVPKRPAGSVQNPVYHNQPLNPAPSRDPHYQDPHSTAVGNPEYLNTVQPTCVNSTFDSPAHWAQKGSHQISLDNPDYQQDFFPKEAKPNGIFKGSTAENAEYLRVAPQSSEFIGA

Row | SMILES | inhibition
1 | N[C@@H](Cc1cc(O)c(O)c(Sc2nc[nH]n2)c1)C(=O)O | 17
2 | NCCC(=O)NCCc1cc(O)c(O)c(SC[C@H](N)C(=O)O)c1 | 12.1
3 | NCCC(=O)NCCc1cc(O)c(O)c(SC[C@H](NC(=O)CC[C@H](N)C(=O)O)C(=O)NCC(=O)O)c1 | 4.9
4 | NCCC(=O)N[C@@H](Cc1cc(O)c(O)c(SC[C@H](NC(=O)CC[C@H](N)C(=O)O)C(=O)NCC(=O)O)c1)C(=O)O | 2.2
5 | NCCC(=O)N[C@@H](Cc1cc(O)c(O)c(SC[C@H](N)C(=O)N[C@@H](CCC(=O)O)C(=O)O)c1)C(=O)O | 0
6 | NCCc1cc(O)c(O)c(SC[C@H](N)C(=O)N[C@@H](CCC(=O)O)C(=O)O)c1 | 9.3
7 | NCCc1cc(O)c(O)c(SC[C@H](N)C(=O)O)c1 | 16.3
8 | NCCc1cc(O)c(O)c(Sc2nc3ccccc3[nH]2)c1 | 15.1
9 | N[C@@H](Cc1cc(O)c(O)c(SC[C@H](N)C(=O)N[C@@H](CCC(=O)O)C(=O)O)c1)C(=O)O | 0
10 | NCCC(=O)NCCc1cc(O)c(O)c(SC[C@H](N)C(=O)N[C@@H](CCC(=O)O)C(=O)O)c1 | 52.1
11 | N[C@@H](Cc1cc(O)c(O)c(Sc2nc3ccccc3[nH]2)c1)C(=O)O | 11.7
12 | N[C@@H](Cc1cc(O)c(O)c(SC[C@H](N)C(=O)NCC(=O)O)c1)C(=O)O | 2.5
13 | N[C@@H](CSc1cc(C[C@H](N)C(=O)O)cc(O)c1O)C(=O)O | 2.9
14 | NCCC(=O)NCCc1cc(O)c(O)c(SC[C@H](N)C(=O)NCC(=O)O)c1 | 7.9
15 | NCCc1cc(O)c(O)c(SC[C@H](N)C(=O)NCC(=O)O)c1 | 19.6
16 | NCCC(=O)N[C@@H](Cc1cc(O)c(O)c(SC[C@H](N)C(=O)NCC(=O)O)c1)C(=O)O | 0
17 | NCCc1cc(O)c(O)c(Sc2nc[nH]n2)c1 | 15.9
